Reference: US11512042B2, “Enamine compounds for absorbance of electromagnetic energy” (Commonwealth Scientific and Industrial Research Organisation, priority 2015, dated 2022)
“Also recorded” adds a separate entry of the source.

How the values were obtained:
Type in all cases: physicochemical
[1] = UV absorbance spectrum in solution (λmax, λcrit, extinction coefficients); conditions: for λcrit: critical wavelength; for E (1%, 1 cm): mass extinction coefficient
Procedure, shortened: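 Spectra taken on 0.001% solutions in methanol, 10 mm path. Breakthrough is the wavelength where transmittance rises above 1%; steepness is the nm span over which transmittance goes from 1 to 80%.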

[2] = Lens casting in NK ester lens formulation; conditions: AIBN initiator, cured 70° C. 18 hours, 0.1 wt %
Method: (§1) Two lens formulations were used. The first (CR-39) was composed of Di(ethylene glycol) bis(allylcarbonate) with 3% wt benzoyl peroxide as initiator. The second lens formulation (NK) was made up of 4 parts NK Ester BPE 100N (Ethoxylated Bisphenol A dimethacrylate) to 1 part NK Ester 9G (PEG 400 dimethacrylate) with 0.4 wt % AIBN as initiator.
(§2) Once the glue had dried the lens matrix (3 g of the lens matrix was treated with 3 mg of absorber, 0.1 wt % and stirred until dissolution complete. 3 g of the matrix was sufficient to prepare 3-4 lenses) was added via pipette to the interior until a convex meniscus was formed at the top of the O-ring. The mixture was then left to settle for 15 minutes during which time any bubbles formed were dispersed. A second microscope slide was then slowly rolled on top of the first to form a seal and expel any air. Taking care to maintain pressure the lens mould was then clamped at the sides with two “Bulldog” clips and cured in an oven at 70° C. for 18 hours. Once the curing process was complete the two microscope slides were separated and the lens removed from the O-ring before washing with acetone and drying/polishing with a soft tissue. The lenses thus formed were approximately 2 mm thick and 15 mm in diameter.

[3] = Lens casting in CR-39 lens formulation; conditions: benzoyl peroxide initiator, cured 70° C. 18 hours, 0.1 wt %
Method: as §1, §2
Of particular interest are compounds 163 and 164 which show an increase in λmax on constraining only the nitrogen substituent in a ring i.e. not the double bond. […] Additionally the dimethyl analogue 213 (structure in table 14) was also evaluated.

[4] = PMMA film in QUV Weatherometer; conditions: type A bulbs, 70° C. 8 hours then dark humid 50° C. 4 h
Method: In order to gauge longer term photostability, the PMMA film samples were evaluated in a QUV Weatherometer using type A bulbs with solar irradiance at 70° C. for 8 hours followed by heating in the dark under a humid atmosphere at 50° C. for 4 h. The film was then sandwiched between 2 glass slides to prevent deformation and irradiated. The samples were evaluated by a visual comparison and measurement of transmittance spectra. […] This clearly indicates the suitability of compounds of the first aspect to incorporation into polymeric matrices and films. The relevant transmission spectra are shown in FIG. 11 (142), FIG. 12 (143), FIG. 13 (164), FIG. 14 (213) and FIG. 15 (215) wherein in all of these figures the lower plateau line represents the result following radiation and the upper line prior to irradiation.

[5] = Stability to epoxy resin curing; conditions: 2 part epoxy resin, transmittance vs solution
Method: In order to test the stability of a number of compounds to a typical epoxy resin curing system, epoxy adhesive packs were obtained (Parfix 5 minute everyday epoxy adhesive, 24 ml). This is a standard 2 part epoxy resin with the first part composed of a viscous Bisphenol-A/epichlorohydrin polymeric reaction product. The second part is a viscous 30% solution of an aminophenol hardener, T (shown below). Epoxy resins cured by 1° and 2° amines are also available.
To test the stability of the compounds to the curing conditions, a 0.1% wt (1 mg absorber per gram of resin) was prepared and added to a mould comprising a 2 mm thick viton o-ring super glued to a microscope slide. […] Due to difficulties in solubilising the compounds in the mixed resin/hardener in the limited working time as the resin cured; the two barrels of the application syringe were separated with a scalpel allowing the separate application of both parts of the resin system.
This was then mixed thoroughly and immediately added to the moulds as described above. […]

[6] = % transmission spectrum of 0.1% solution (breakthrough, steepness); conditions: for Steepness: distance in nm over which transmittance increases from 1 to 80%; for Breakthrough (1% T at 0.1%): value in nm where transmittance increases beyond 1%, 0.1% solution
Procedure, shortened: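 Transmission was recorded for 0.1% methanol solutions in a 2 mm cuvette. Breakthrough is the wavelength (nm) at which transmittance exceeds 1%; steepness is the nm span over which transmittance rises from 1 to 80%. Some values are averages of multiple measurements.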

[7] = Solubility in the photostability test solution; conditions: printed in the photostability (or steepness) column
Description: The properties of these compounds are shown in table 9 with comparator compounds. […] In both cases low solubility meant that photostability could not be measured. This would not preclude use of the compounds in many applications where solubility is not at issue.
In one embodiment, the compounds may provide for improved solubility or stability in standard compositions, including sunscreen compositions. Such solubility may be measured by generating, for example, a 3% solution of the relevant compound in 2:1:1 EtOH:capric/caprylic triglyceride:C12-C15 alkyl benzoate.
1 mL of a 3% solution of the test compound (30 mg of test compound in 1 mL solvent) was prepared in a solvent mix made up of 50% EtOH and 25% capric/caprylic triglyceride and 25% C12-C15 alkyl benzoate. 50 μL of this solution (containing 1.5 mg of test compound) was added carefully to the centre of a glass microscope slide and the volatile components left to evaporate in the dark for at least 3 hours to give a liquid film. The prepared films were then exposed for 1 hour to an Eimac 150 W xenon arc lamp filtered through Pyrex (15 Amp supply current, samples 19 cm from the lamp) previously allowed to warm up for 15 minutes prior to sample exposure. […] One hour's exposure represented a calculated radiation dose (using meter) of approximately 100 MED.

[8] = Irradiation in polyurethane varnish coating; conditions: 1% in polyurethane varnish, xenon arc lamp two hours
Method: As a model for the use of the compounds of the first aspect in coatings, a 1% solution by mass (10 mg in 1 g) of the compounds in British Paints oil based polyurethane varnish was applied to the surface of a microscope slide and left to dry overnight in the dark. The transmittance of the slide was then measured before irradiating the sample with a xenon arc lamp (as for the solution phase thin film samples) for two hours and the transmittance re-measured. Slight variations in the thickness of the films obtained would be sufficient to result in variations in transmittance so it was judged to be of equal importance to observe the slope of the samples before and after irradiation as any change here was likely an indicator of decomposition. The varnish itself blocks the transmission of light up to approximately 350-370 nm.

[9] = Irradiation of PMMA thin film (xenon lamp, sunlight); conditions: irradiated 1 h, 2 h and 3 weeks direct sunlight
Method: In order to determine the stability of the compounds in a polymer matrix, thin films were cast in Poly(methylmethacrylate) (PMMA). This was achieved by adding the compound in question to a solution of PMMA (Mw 240,000) in DCM and spreading the resulting solution onto a glass slide before evaporation over night to give the desired film. The film was then sandwiched between 2 glass slides to prevent deformation and irradiated. […] In this way films of compound 164 were prepared. The films were irradiated for 1 h, 2 h and also left outside exposed to direct sunlight and atmospheric conditions for 3 weeks (Melbourne summer time).

[10] = Photostability protocol: thin film irradiated with xenon arc lamp; conditions: 1 hour xenon arc lamp
Procedure, shortened: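 A 3% solution in EtOH/triglyceride/alkyl benzoate is dried on glass slides into a liquid film of 1.5 mg compound. Films are irradiated 1 h with a Pyrex-filtered 150 W xenon arc lamp (about 100 MED, below 30° C). Washings are read by UV; stability is absorbance at λmax relative to unirradiated film.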

[11] = molar extinction coefficient, in M-1 cm-1 (unit assumed)

| λmax [1] [nm] | ε ([1]; UV, at λmax) [M⁻¹ cm⁻¹] | λcrit [1] [nm] | E (1%, 1 cm) [1] | ε [1, 11] | Stability to lens casting conditions [2] | Stability to epoxy resin curing [5] | Steepness [6] [nm] | Breakthrough (1% T at 0.1%) [6] [nm] | Solubility for photostability measurement [7] | Stability to irradiation in varnish [8] | Stability in PMMA thin film [9] | Photostability (% remains) [10] [%] | Photostability ([10]; ratio of absorbance at λmax irradiated vs unirradiated, ^a = average of multiple measurements) [%] | Compound | Stability to lens casting conditions [3] | Longer term photostability in PMMA film [4] |
| --- | --- | --- | --- | --- | --- | --- | --- | --- | --- | --- | --- | --- | --- | --- | --- | --- |
| 351 | 27893 | 381 | 760 | 27893 | very little if any decomposition | little or no decomposition occurred | 32 | 402 | Not soluble | – | – | – | – | O=C(/C(=C\N(c1ccccc1)c1ccccc1)c1ccccc1)C(F)(F)F [Compound 143, 4-(diphenylamino)-1,1,1-trifluoro-3-phenylbut-3-en-2-one] | stable enough for such incorporation; also recorded: very little if any decomposition | little sign of decomposition after irradiation |
| 367 | – | 389 | 1127 | 35741 | – | remain intact after curing | 20 | 418 | – | largely unscathed by the irradiation | without compound deterioration | 99 | 99 | O=C(/C(=C\N1CCc2ccccc21)c1ccccc1)C(F)(F)F [Compound 164] | stable enough for such incorporation; also recorded: good stability to the lens curing conditions | little sign of decomposition after irradiation |
| 361 | – | 361 | 1089 | 31385 | – | – | – | 405 | Not soluble | – | – | – | – | N#CCC(=O)/C(=C\N1CCc2ccccc21)c1ccccc1 [Compound 249] | – | – |
